Results as given in patent publication US9206396B2, “Methods and devices for quantitative viral assays” (Wisconsin Alumni Research Foundation, priority 2005, dated 2015).
≈ marks a conversion by molar mass, not a printed value. Entries after “also recorded” stand apart in the source; their conditions may differ. Where two headings read alike, the source gives them in different places.

Tests used:
Assay in all cases: microbe, parasite or virus in culture
Assay type in all cases: cell-based, recombinant VSV in BHK cells
rVSV-GFP [1] = system: rVSV-GFP
rVSV-GFP [2] = system: rVSV-GFP; remark: listed apart in the source
rVSV-GFP [3] = system: rVSV-GFP; remark: listed apart in the source

## O=c1[nH]cc(F)c(=O)[nH]1 [5-fluorouracil]
rVSV-GFP [1]
  Infection at drug concentration of 16 μg/ml, yield assay: retained detectable infection
rVSV-GFP [1]; Vesicular stomatitis virus, read-out: IC50, drug concentration required to reduce the virus yield by 50%
  IC50: 4 µg/mL (≈ 30.8 µM)
rVSV-GFP [2]
  Infection at drug concentration of 16 μg/ml, plaque assay: retained detectable infection
rVSV-GFP [2]; Vesicular stomatitis virus, read-out: IC50, drug concentration required to reduce the number of plaques by 50%
  IC50: 16 µg/mL (≈ 123 µM)
rVSV-GFP [3]
  Detection of comets at 16 μg/ml: comets could no longer be detected
  Inhibition of VSV comet formation: Dose-dependent inhibition; also recorded: inhibited the formation of comets in a dose-dependent manner
rVSV-GFP [3]; Vesicular stomatitis virus, read-out: 50 percent inhibition concentration (IC50), virus infectivity, comet assay
  IC50: 1 µg/mL (≈ 7.69 µM)
